Laboratory results from patent publication US20040266718A1, “Inhibition of specific histone deacetylase isoforms” (priority 2001, published 2004).
d = 2'-deoxy (DNA); m = 2'-O-methyl

Key:
[1] = test system: Human cancer HCT116 cells; assay: cell cycle arrest by FACS; type: cell-based; settings: HCT116, 16 hours; concentration to induce a (G2+M)/S ratio of 2.5
Description: Human cancer HCT116 cells were plated at 2×10^5 per 10-cm dish and were left to attach to the dish overnight in the incubator. Cells were treated with small molecule inhibitors at various concentrations (1 uM and 10 uM, typically, dissolved in DMSO) for 16 hours. Cells were harvested by trypsinization and washed once in 1×PBS (phosphate buffered saline). The cells were resuspended in about 200 ul 1×PBS and were fixed by slowly adding 1 ml 70% ethanol at −20° C. and were left at least overnight at −20° C. Fixed cells were centrifuged at low speed (1,000 rpm) for 5 minutes, and the cell pellets were washed again with 1×PBS. Nucleic acids from fixed cells were incubated in a staining solution (0.1% (w/v) glucose in 1×PBS containing 50 ug/ml propidium iodide) (Sigma-Aldridge, Mississauga, Ontario, CA) and RNase A (final 100 units/ml, (Sigma-Aldridge, Mississauga, Ontario, CA) for at least 30 minutes in the dark at 25° C. DNA content was measured by using a fluorescence-activated cell sorter (FACS) machine. Treatment of cells with all HDAC small molecule inhibitors in Table 2 results in a significant accumulation of cancer cell in G2/M phase of the cell cycle and concomitantly reduce the accumulation of cancer cells in S phase of the cell cycle. The ratio of cells in G2/M phase vs. cells in the S. phase was determined. […]

[2] = test system: human colon cancer HCT116 cells; assay: MTT assay of cell proliferation; type: cell-based; settings: HCT-116, 72 hours
Description: Two thousand (2,000) human colon cancer HCT116 cells (ATCC, Manassas, Va. were used in an MTT (3-[4,5-dimethylthiazol-2-yl]-2,5 diphenyl tetrazolium bromide) assay to quantitatively determine cell proliferation and cytotoxicity. Typically, HCT116 cells were plated into each well of the 96-well tissue culture plate and left overnight to attach to the plate. Compounds at various concentrations were added into the culture media (final DMSO concentration 1%) and incubated for 72 hours. MTT solution (obtained from Sigma as powder) was added and incubated with the cells for 4 hours at 37° C. in incubator with 5% CO2. During the incubation, viable cells convert MTT to a water-insoluble formazan dye. Solubilizing buffer (50% N,N-dimethylformamide, 20% SDS, pH 4.7) was added to cells and incubated for overnight at 37C in incubator with 5% CO2. Solubilized dye was quantitated by calorimetric reading at […] using a reference of […]. Optical density values were converted to cell number values by comparison to a standard growth curve for each cell line.

[3] = test system: cyclin B1 in Human cancer A549 cells; assay: Western blot of cyclin B1 in A549 cells; type: cell-based; settings: 48 hours, FIG. 16
Description: (§1) Human cancer A549 cells were treated with AS1, AS2 or MM oligo directed human HDAC1 for 48 hours. Total cell lysates were harvested and analyzed by Western blot using antibodies against human HDAC1, cyclin B1, cyclin A and actin (all from Santa Cruz Biotechnology, Inc., Santa Cruz, Calif.). […] (FIG. 16)

[4] = test system: cyclin A in Human cancer A549 cells; assay: Western blot of cyclin A in A549 cells; type: cell-based; settings: 48 hours, FIG. 16
Description: as §1

T24 [5] = assay: apoptosis, Cell Death Detection ELISA, T24; type: cell-based, human; settings: OSDN
Description: (§2) In order to determine the effect of HDAC OSDNs on cell growth and cell death through apoptosis, A549 or T24 cells, MDAmb231 cells, and HMEC cells (ATCC, Manassas, Va.) were treated with HDAC OSDNs as previously described.
(§3) For the apoptosis study, cells were analyzed using the Cell Death Detection ELISA^Plus kit (Roche Diagnostic GmBH, Mannheim, Germany) according to the manufacturer's directions. Typically, 10,000 cells were plated in 96-well tissue culture dishes for 2 hours before harvest and lysis. Each sample was analyzed in duplicate. ELISA reading was done using a MR700 plate reader (DYNEX Technology, Ashford, Middlesex, England) at 410 nm. The reference was set at 490 nm.

A549 [6] = assay: apoptosis, Cell Death Detection ELISA, A549; type: cell-based, human; settings: OSDN
Description: as §2, §3

human HDAC-1 RNA = assay: antisense screen by Northern blot in T24 cells, HDAC-1; type: cell-based; settings: 100 nM, 24 hours
Description: (§4) Briefly, human A549 and/or T24 human bladder carcinoma cells were seeded in 10 cm tissue culture dishes one day prior to oligonucleotide treatment. The cell lines were obtained from the American Type Culture Collection (ATCC) (Manassas, Va.) and were grown under the recommended culture conditions. Before the addition of the oligonucleotides, cells were washed with PBS (phosphate buffered saline). Next, lipofectin transfection reagent (GIBCO BRL Mississauga, Ontario, Calif.), at a concentration of 6.25 μg/ml, was added to serum free OPTIMEM medium (GIBCO BRL, Rockville, Md.), which was then added to the cells. The oligonucleotides to be screened were then added directly to the cells (i.e., one oligonucleotide per plate of cells). Mismatched oligonucleotides were used as controls. The same concentration of oligonucleotide (e.g., 50 nM) was used per plate of cells for each oligonucleotide tested.
Cells were harvested, and total RNAs were analyzed by Northern blot analysis. Briefly, total RNA was extracted using RNeasy miniprep columns (QIAGEN). Ten to twenty μg of total RNA was run on a formaldehyde-containing 1% agarose gel with 0.5 M sodium phosphate (pH 7.0) as the buffer system. RNAs were then transferred to nitrocellulose membranes and hybridized with the indicated radiolabeled DNA probes. Autoradiography was performed using conventional procedures.

HMEC [7] = assay: apoptosis, Cell Death Detection ELISA, HMEC; type: cell-based, human; settings: OSDN, normal cells
Description: as §2, §3

MDAmb231 [8] = assay: apoptosis, Cell Death Detection ELISA, MDAmb231; type: cell-based, human; settings: OSDN
Description: as §2, §3

MDAmb231 [9] = assay: cell growth analysis (trypan blue cell count), MDAmb231; type: cell-based, human; settings: 50 nM, 72 hours
Description: as §4, §2
(§5) Cells were harvested and cell numbers counted by trypan blue exclusion using a hemocytometer. Percentage of inhibition was calculated as (100—AS cell numbers/control cell numbers)%.

human HDAC-2 RNA = assay: antisense screen by Northern blot in T24 cells, HDAC-2; type: cell-based; settings: screened as above (T24 cells, 100 nM, 24 hours)
Description: Twenty-four phosphorothioate ODNs containing sequences complementary to the 5′ or 3′ UTR of the human HDAC-2 gene (GenBank Accession No. U31814) were screened as above. […] HDAC-2 MM was created as a control; compared to the antisense oligo, it contains a 7-base mismatch.
as §4
(§6) Cells were harvested, and total RNAs were analyzed by Northern blot analysis. Briefly, total RNA was extracted using RNeasy miniprep columns (QIAGEN). […]

human cancer cells = assay: cell growth and apoptosis of human cancer cells; type: cell-based; settings: for growth arrest and apoptosis of human cancer cells: text summary of FIGS. 11-13, Tables 4 and 5
Description: as §2, §3, §5

human HDAC-3 RNA = assay: antisense screen by Northern blot in T24 cells, HDAC-3; type: cell-based; settings: screened as above (T24 cells, 100 nM, 24 hours)
Description: Twenty-one phosphorothioate ODNs containing sequences complementary to the 5′ or 3′ UTR of the human HDAC-3 gene (GenBank Accession No. AF039703) were screened as above. […] HDAC-3 MM oligonucleotide was created as a control; compared to the antisense oligonucleotide, it contains a 6-base mismatch.
as §4, §6

HMEC [10] = assay: cell growth analysis (trypan blue cell count), HMEC; type: cell-based, human; settings: 50 nM, 72 hours, normal cells
Description: as §4, §2, §5

A549 [11] = assay: cell growth analysis (trypan blue cell count), A549; type: cell-based, human; settings: 50 nM, 72 hours
Description: as §4, §2, §5

T24 [12] = assay: cell growth analysis (trypan blue cell count), T24; type: cell-based, human; settings: 50 nM, 72 hours
Description: as §4, §2, §5

human HDAC-4 RNA = assay: antisense screen by Northern blot in T24 cells, HDAC-4; type: cell-based; settings: screened as above (T24 cells, 100 nM, 24 hours)
Description: Seventeen phosphorothioate ODNs containing sequences complementary to the 5′ or 3′ UTR of the human HDAC-4 gene (GenBank Accession No. AB006626) were screened as above. […] HDAC-4 MM1 and MM2 oligonucleotides were created as controls; compared to the antisense oligonucleotides, they each contain a 6-base mismatch.
as §4, §6

human HDAC-5 RNA = assay: antisense screen by Northern blot in T24 cells, HDAC-5; type: cell-based; settings: screened as above (T24 cells, 100 nM, 24 hours)
Description: Thirteen phosphorothioate ODNs containing sequences complementary to the 5′ or 3′ untranslated regions of the human HDAC-5 gene (GenBank Accession No. AF039691) were screened as above.
as §4
Cells were harvested, and total RNAs were analyzed by Northern blot analysis. Briefly, total RNA was extracted using RNeasy miniprep columns (QIAGEN). Ten to twenty μg of total RNA was run on a formaldehyde-containing 1% agarose gel with 0.5 M sodium phosphate (pH 7.0) as the buffer system. […]

human HDAC-6 RNA = assay: antisense screen by Northern blot in T24 cells, HDAC-6; type: cell-based; settings: screened as above (T24 cells, 100 nM, 24 hours)
Description: Thirteen phosphorothioate ODNs containing sequences complementary to the 5′ or 3′ untranslated regions of the human HDAC-6 gene (GenBank Accession No. AJ011972) were screened as above. […] HDAC-6 MM oligo was created as a control; compared to the antisense oligo, it contains a 7-base mismatch.
as §4, §6

Compound: CC(/C=C/C(=O)Nc1ccccc1N)=C\C(C)C(=O)c1ccc(N(C)C)cc1 (stereo not drawn) [Compound 1]
- Cell Cycle Arrest EC [1]: 2 µM
- EC50 [2]: 3000 nM

Compound: HDAC-1 AS1: antisense oligonucleotide to human HDAC1, 5′-GAAACGTGAGGGACTCAGCA-3′ (SEQ ID NO:17) (chemistry not given here)
- expression of cyclin B1 [3]: repress expression
- expression of cyclin A [4]: repress expression
- Apoptosis After 48 Hour Treatment T24 (T24 [5]): − (< = 2x fold over non-specific background)
- Apoptosis After 48 Hour Treatment A549 (A549 [6]): + (2-3X fold)
- antisense activity to human HDAC-1 (RNA expression, Northern blot) (human HDAC-1 RNA): antisense activity
- Apoptosis After 48 Hour Treatment HMEC (HMEC [7]): − (< = 2x fold over non-specific background)

Compound: HDAC-1 AS2: antisense oligonucleotide to human HDAC1, 5′-GGAAGCCAGAGCTGGAGAGG-3′ (SEQ ID NO:18) (chemistry not given here)
- expression of cyclin B1 [3]: repress expression
- expression of cyclin A [4]: repress expression
- antisense activity to human HDAC-1 (RNA expression, Northern blot) (human HDAC-1 RNA): antisense activity

Compound: HDAC-2 AS: antisense oligonucleotide to human HDAC2, 5′-GCTGAGCTGTTCTGATTTGG-3′ (SEQ ID NO:20) (chemistry not given here)
- Apoptosis After 48 Hour Treatment MDAmb231 (MDAmb231 [8]): − (< = 2x fold over non-specific background)
- Apoptosis After 48 Hour Treatment T24 (T24 [5]): − (< = 2x fold over non-specific background)
- Apoptosis After 48 Hour Treatment A549 (A549 [6]): − (< = 2x fold over non-specific background)
- Growth Inhibition (AS vs. MM) MDAmb231 (MDAmb231 [9]): − (no inhibition)
- antisense activity to human HDAC-2 (RNA expression, Northern blot) (human HDAC-2 RNA): antisense activity
- cancer cell growth inhibition (human cancer cells): minimal effect
- Apoptosis After 48 Hour Treatment HMEC (HMEC [7]): − (< = 2x fold over non-specific background)

Compound: HDAC-3 AS: antisense oligonucleotide to human HDAC3, 5′-CGCTTTCCTTGTCATTGACA-3′ (SEQ ID NO:22) (chemistry not given here)
- Apoptosis After 48 Hour Treatment MDAmb231 (MDAmb231 [8]): − (< = 2x fold over non-specific background)
- Apoptosis After 48 Hour Treatment T24 (T24 [5]): − (< = 2x fold over non-specific background)
- Apoptosis After 48 Hour Treatment A549 (A549 [6]): − (< = 2x fold over non-specific background)
- Growth Inhibition (AS vs. MM) MDAmb231 (MDAmb231 [9]): − (no inhibition)
- antisense activity to human HDAC-3 (RNA expression, Northern blot) (human HDAC-3 RNA): antisense activity
- growth arrest and apoptosis of human cancer cells (human cancer cells): no effect
- Growth Inhibition (AS vs. MM) HMEC (HMEC [10]): − (no inhibition)
- Growth Inhibition (AS vs. MM) A549 (A549 [11]): − (no inhibition)
- Apoptosis After 48 Hour Treatment HMEC (HMEC [7]): − (< = 2x fold over non-specific background)
- Growth Inhibition (AS vs. MM) T24 (T24 [12]): − (no inhibition)

Compound: HDAC-4 AS2: antisense oligonucleotide to human HDAC4, 5′-TACAGTCCATGCAACCTCCA-3′ (SEQ ID NO:26) (sugars from the 5' end m4 d12 m4, all phosphorothioate, methylation of C and T or U not given here)
- antisense activity to human HDAC-4 (RNA expression, Northern blot) (human HDAC-4 RNA): antisense activity

Compound: HDAC-5 AS: antisense oligonucleotide to human HDAC5, 5′-CTTCGGTCTCACCTGCTTGG-3′ (SEQ ID NO:28) (sugars from the 5' end m4 d12 m4, all phosphorothioate, methylation of C and T or U not given here)
- antisense activity to human HDAC-5 (RNA expression, Northern blot) (human HDAC-5 RNA): antisense activity

Compound: HDAC-6 AS: antisense oligonucleotide to human HDAC6, 5′-CAGGCTGGAATGAGCTACAG-3′ (SEQ ID NO:29) (chemistry not given here)
- Apoptosis After 48 Hour Treatment MDAmb231 (MDAmb231 [8]): − (< = 2x fold over non-specific background)
- Apoptosis After 48 Hour Treatment T24 (T24 [5]): − (< = 2x fold over non-specific background)
- Apoptosis After 48 Hour Treatment A549 (A549 [6]): − (< = 2x fold over non-specific background)
- growth arrest and apoptosis of human cancer cells (human cancer cells): no effect
- Growth Inhibition (AS vs. MM) HMEC (HMEC [10]): − (no inhibition)
- Growth Inhibition (AS vs. MM) A549 (A549 [11]): − (no inhibition)
- Apoptosis After 48 Hour Treatment HMEC (HMEC [7]): − (< = 2x fold over non-specific background)
- Growth Inhibition (AS vs. MM) T24 (T24 [12]): − (no inhibition)
- antisense activity to human HDAC-6 (RNA expression, Northern blot) (human HDAC-6 RNA): antisense activity
